From article PMC4508061, “Selectivity Profiling and Biological Activity of Novel β-Carbolines as Potent and Selective DYRK1 Kinase Inhibitors” (PLoS ONE, 2015)
Entries after “also recorded” stand apart in the source; their conditions may differ.

How the values were obtained:
MAO-A = biological target: T1, MAO-A (Homo sapiens, UniProt P21397); assay: MAO-GLO assay; format: biochemical
T1 sequence (P21397 1-527): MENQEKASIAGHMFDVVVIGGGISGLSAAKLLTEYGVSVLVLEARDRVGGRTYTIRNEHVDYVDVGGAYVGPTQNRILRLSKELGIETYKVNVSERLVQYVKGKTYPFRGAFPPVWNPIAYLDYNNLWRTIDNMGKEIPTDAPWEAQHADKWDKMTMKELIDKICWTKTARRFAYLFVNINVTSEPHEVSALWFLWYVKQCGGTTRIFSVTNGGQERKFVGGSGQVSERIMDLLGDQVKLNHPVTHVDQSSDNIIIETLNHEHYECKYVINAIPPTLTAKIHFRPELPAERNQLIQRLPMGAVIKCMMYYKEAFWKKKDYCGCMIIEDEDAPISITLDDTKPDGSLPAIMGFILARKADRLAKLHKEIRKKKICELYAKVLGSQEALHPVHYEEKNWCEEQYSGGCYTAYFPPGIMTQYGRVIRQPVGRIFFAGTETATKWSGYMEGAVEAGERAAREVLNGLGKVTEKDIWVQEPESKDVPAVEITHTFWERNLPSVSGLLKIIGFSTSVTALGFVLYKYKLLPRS
Experimental: 2 were calculated. Kinase activity of DYRK1A was determined by radiometric assays using the peptide DYRKtide as a substrate. MAO-A activity was measured with the help of the MAO-GLO assay kit (Promega). IC50 values were calculated by curve fitting with the help of […]
the […] PRISM 5.0 program after automatic outlier elimination. The graphs present

ABL2 = ABL2 (Homo sapiens, UniProt P42684); assay: ProQinase radiometric kinase panel; conditions: mean of 2 exp.
ALK = ALK (Homo sapiens, UniProt Q9UM73); assay: ProQinase radiometric kinase panel; conditions: mean of 2 exp.
Aurora-A = Aurora-A (Homo sapiens, UniProt O14965); assay: ProQinase radiometric kinase panel; conditions: mean of 2 exp.
BMX = BMX (Homo sapiens, UniProt P51813); assay: ProQinase radiometric kinase panel; conditions: mean of 2 exp.
B-RAF = B-RAF (Homo sapiens, UniProt P15056); assay: ProQinase radiometric kinase panel; conditions: mean of 2 exp.
CAMK1D = CAMK1D (Homo sapiens, UniProt Q8IU85); assay: ProQinase radiometric kinase panel; conditions: mean of 2 exp.
CAMK2D = CAMK2D (Homo sapiens, UniProt Q13557); assay: ProQinase radiometric kinase panel; conditions: mean of 2 exp.
CDK4/CycD1 = CDK4/CycD1 (Homo sapiens, UniProt P11802); assay: ProQinase radiometric kinase panel; conditions: mean of 2 exp.
CK1-delta = CK1-delta (Homo sapiens, UniProt P48730); assay: ProQinase radiometric kinase panel; conditions: mean of 2 exp.
CSK = CSK (Homo sapiens, UniProt P41240); assay: ProQinase radiometric kinase panel; conditions: mean of 2 exp.
DDR2 = DDR2 (Homo sapiens, UniProt Q16832); assay: ProQinase radiometric kinase panel; conditions: mean of 2 exp.
Chain of DDR2 (Q16832 22-855): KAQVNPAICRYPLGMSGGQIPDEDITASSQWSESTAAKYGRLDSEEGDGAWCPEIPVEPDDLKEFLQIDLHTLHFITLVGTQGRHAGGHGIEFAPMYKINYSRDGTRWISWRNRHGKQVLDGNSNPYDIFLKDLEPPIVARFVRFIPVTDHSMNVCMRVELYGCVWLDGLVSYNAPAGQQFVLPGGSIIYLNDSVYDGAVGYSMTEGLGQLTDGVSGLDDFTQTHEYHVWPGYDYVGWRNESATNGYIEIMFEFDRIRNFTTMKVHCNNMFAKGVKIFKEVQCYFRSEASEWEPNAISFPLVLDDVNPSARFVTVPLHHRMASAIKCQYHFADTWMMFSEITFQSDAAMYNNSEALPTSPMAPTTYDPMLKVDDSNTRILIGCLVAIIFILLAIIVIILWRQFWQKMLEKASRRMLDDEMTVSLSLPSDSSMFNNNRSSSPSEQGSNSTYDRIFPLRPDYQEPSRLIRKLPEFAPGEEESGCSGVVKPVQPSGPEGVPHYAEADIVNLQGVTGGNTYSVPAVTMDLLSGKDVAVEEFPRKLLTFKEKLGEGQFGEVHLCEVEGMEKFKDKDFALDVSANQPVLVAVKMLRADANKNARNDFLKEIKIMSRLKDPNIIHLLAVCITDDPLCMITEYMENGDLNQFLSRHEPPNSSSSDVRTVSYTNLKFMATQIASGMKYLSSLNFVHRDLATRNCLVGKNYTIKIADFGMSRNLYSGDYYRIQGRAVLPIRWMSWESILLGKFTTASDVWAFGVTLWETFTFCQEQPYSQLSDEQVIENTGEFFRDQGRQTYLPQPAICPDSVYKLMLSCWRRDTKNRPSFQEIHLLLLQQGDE

EPHB2 = EPHB2 (Homo sapiens, UniProt P29323); assay: ProQinase radiometric kinase panel; conditions: mean of 2 exp.
GRK2 = GRK2 (Homo sapiens, UniProt P25098); assay: ProQinase radiometric kinase panel; conditions: mean of 2 exp.
Chain of GRK2 (P25098 whole entry): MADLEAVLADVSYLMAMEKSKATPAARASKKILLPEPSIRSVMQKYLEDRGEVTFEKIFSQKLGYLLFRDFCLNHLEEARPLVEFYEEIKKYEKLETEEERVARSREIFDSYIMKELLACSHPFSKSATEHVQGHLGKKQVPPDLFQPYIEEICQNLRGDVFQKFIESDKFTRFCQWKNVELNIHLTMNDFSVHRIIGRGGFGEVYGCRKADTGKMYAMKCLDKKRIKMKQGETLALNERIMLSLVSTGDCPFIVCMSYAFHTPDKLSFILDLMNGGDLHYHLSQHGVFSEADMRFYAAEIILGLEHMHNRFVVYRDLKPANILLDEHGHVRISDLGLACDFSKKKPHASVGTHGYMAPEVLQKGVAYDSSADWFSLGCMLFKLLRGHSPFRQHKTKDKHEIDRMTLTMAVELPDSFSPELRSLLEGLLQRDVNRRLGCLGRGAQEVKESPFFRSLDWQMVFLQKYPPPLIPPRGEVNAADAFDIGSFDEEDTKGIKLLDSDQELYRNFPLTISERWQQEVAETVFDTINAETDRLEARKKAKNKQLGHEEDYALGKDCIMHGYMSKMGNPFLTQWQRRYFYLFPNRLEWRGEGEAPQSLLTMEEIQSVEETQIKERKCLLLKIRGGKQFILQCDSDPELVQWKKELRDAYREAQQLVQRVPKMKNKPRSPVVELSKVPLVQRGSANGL

GRK5 = GRK5 (Homo sapiens, UniProt P34947); assay: ProQinase radiometric kinase panel; conditions: mean of 2 exp.
HIPK1 = HIPK1 (Homo sapiens, UniProt Q86Z02); assay: ProQinase radiometric kinase panel; conditions: mean of 2 exp.
HIPK2 = HIPK2 (Homo sapiens, UniProt Q9H2X6); assay: ProQinase radiometric kinase panel; conditions: mean of 2 exp.
LIMK1 = LIMK1 (Homo sapiens, UniProt P53667); assay: ProQinase radiometric kinase panel; conditions: mean of 2 exp.
Chain of LIMK1 (P53667 whole entry): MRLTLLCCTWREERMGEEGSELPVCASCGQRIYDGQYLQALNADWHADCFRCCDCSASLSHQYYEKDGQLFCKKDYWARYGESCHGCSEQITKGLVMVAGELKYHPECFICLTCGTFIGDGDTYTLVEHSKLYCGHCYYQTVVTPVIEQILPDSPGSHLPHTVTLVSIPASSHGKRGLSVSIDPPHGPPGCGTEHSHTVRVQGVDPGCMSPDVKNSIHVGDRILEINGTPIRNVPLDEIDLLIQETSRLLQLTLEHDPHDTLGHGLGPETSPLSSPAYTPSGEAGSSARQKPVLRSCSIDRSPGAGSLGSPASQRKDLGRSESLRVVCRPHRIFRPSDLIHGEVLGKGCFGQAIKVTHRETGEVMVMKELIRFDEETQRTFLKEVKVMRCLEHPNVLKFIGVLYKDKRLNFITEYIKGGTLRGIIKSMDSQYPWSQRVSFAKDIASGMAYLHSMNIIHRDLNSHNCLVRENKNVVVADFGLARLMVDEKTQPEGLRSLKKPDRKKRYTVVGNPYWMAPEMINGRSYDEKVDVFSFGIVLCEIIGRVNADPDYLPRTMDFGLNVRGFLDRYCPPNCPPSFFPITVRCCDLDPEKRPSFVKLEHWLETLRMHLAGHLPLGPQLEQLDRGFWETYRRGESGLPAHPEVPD
Experimental: Gini coefficients were calculated and the Lorenz curve (Fig 3B) was plotted by applying the Microsoft Excel spreadsheet provided by Graczyk [44].
radiometric protein kinase assays.

MAP4K2 = MAP4K2 (Homo sapiens, UniProt Q12851); assay: ProQinase radiometric kinase panel; conditions: mean of 2 exp.
MET = MET (Homo sapiens, UniProt P08581); assay: ProQinase radiometric kinase panel; conditions: mean of 2 exp.
MST1 = MST1 (Homo sapiens, UniProt Q13043); assay: ProQinase radiometric kinase panel; conditions: mean of 2 exp.
MUSK = MUSK (Homo sapiens, UniProt O15146); assay: ProQinase radiometric kinase panel; conditions: mean of 2 exp.
NEK3 = NEK3 (Homo sapiens, UniProt P51956); assay: ProQinase radiometric kinase panel; conditions: mean of 2 exp.
PKC-gamma = PKC-gamma (Homo sapiens, UniProt P05129); assay: ProQinase radiometric kinase panel; conditions: mean of 2 exp.
PKC-theta = PKC-theta (Homo sapiens, UniProt Q04759); assay: ProQinase radiometric kinase panel; conditions: mean of 2 exp.
PKC-zeta = PKC-zeta (Homo sapiens, UniProt Q05513); assay: ProQinase radiometric kinase panel; conditions: mean of 2 exp.
ROS = ROS (Homo sapiens, UniProt P08922); assay: ProQinase radiometric kinase panel; conditions: mean of 2 exp.
Chain of ROS (P08922 28-2347): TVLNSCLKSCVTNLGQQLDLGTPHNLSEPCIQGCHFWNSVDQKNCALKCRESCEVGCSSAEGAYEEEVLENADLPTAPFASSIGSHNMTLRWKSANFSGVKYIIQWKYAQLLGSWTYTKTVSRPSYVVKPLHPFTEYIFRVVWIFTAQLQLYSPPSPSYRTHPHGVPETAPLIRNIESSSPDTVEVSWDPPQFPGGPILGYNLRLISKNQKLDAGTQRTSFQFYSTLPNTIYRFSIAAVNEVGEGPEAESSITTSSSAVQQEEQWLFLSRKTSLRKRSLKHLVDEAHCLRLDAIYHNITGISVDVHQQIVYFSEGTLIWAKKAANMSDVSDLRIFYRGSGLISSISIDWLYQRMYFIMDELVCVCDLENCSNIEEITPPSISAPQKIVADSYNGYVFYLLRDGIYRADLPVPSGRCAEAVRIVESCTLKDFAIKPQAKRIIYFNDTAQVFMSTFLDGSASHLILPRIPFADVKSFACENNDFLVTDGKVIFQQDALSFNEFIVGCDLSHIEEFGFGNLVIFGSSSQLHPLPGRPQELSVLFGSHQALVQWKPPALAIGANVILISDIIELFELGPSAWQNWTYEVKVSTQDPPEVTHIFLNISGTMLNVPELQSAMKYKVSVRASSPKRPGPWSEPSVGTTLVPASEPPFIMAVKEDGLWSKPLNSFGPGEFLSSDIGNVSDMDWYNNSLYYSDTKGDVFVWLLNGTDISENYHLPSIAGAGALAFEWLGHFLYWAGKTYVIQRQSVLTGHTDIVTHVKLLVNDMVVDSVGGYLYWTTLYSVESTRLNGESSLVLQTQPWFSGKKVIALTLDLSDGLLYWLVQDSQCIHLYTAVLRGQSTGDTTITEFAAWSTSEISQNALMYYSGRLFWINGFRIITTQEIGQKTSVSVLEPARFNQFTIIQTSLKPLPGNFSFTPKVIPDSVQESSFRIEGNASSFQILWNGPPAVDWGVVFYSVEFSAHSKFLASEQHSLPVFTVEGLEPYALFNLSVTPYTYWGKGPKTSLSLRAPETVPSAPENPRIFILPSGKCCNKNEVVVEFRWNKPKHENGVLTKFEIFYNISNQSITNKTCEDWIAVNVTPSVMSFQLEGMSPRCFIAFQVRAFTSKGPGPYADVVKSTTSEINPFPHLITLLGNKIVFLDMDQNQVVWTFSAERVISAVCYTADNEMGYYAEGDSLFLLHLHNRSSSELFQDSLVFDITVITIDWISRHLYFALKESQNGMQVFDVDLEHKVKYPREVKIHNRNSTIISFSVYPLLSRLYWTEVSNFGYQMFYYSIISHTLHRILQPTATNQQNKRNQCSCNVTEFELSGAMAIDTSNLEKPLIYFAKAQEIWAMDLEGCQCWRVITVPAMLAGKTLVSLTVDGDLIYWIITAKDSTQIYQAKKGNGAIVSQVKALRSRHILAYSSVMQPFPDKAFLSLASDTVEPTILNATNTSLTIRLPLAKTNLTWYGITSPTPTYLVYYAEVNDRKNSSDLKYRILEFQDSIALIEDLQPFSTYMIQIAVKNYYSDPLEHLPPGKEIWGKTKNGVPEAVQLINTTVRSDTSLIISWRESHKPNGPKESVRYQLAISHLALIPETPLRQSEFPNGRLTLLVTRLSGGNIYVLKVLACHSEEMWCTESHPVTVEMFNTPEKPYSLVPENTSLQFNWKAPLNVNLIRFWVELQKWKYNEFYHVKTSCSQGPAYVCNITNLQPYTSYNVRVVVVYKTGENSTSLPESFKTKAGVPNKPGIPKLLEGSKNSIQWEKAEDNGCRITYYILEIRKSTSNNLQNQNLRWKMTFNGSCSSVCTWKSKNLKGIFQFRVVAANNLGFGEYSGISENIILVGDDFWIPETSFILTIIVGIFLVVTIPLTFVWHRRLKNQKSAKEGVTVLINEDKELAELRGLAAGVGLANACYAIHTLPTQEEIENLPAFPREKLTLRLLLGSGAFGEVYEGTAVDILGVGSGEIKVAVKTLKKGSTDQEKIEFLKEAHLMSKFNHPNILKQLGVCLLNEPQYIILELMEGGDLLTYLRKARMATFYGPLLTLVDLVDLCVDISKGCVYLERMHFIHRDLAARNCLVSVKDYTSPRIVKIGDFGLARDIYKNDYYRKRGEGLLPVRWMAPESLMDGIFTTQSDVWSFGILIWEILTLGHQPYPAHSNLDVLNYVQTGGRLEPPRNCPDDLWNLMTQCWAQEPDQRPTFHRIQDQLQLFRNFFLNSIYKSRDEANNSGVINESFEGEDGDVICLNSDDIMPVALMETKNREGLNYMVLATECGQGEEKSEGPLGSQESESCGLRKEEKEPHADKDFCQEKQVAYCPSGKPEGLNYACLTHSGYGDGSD

S6K-beta = S6K-beta (Homo sapiens, UniProt Q9UBS0); assay: ProQinase radiometric kinase panel; conditions: mean of 2 exp.
Chain of S6K-beta (Q9UBS0 whole entry): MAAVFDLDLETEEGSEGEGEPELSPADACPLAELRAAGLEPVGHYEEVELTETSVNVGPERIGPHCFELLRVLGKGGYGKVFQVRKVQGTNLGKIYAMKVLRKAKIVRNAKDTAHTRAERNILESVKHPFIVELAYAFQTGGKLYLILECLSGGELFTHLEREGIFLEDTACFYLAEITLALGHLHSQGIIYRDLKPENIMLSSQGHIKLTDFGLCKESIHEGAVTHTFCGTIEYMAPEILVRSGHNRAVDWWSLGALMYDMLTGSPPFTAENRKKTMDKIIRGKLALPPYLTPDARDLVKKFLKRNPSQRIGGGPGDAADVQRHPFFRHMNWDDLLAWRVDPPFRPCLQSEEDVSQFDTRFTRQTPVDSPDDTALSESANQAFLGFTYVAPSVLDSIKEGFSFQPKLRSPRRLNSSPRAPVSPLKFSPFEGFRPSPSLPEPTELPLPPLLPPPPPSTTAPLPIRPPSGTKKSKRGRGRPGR

SGK3 = SGK3 (Homo sapiens, UniProt Q96BR1); assay: ProQinase radiometric kinase panel; conditions: mean of 2 exp.
SLK = SLK (Homo sapiens, UniProt Q9H2G2); assay: ProQinase radiometric kinase panel; conditions: mean of 2 exp.
VEGF-R1 = VEGF-R1 (Homo sapiens, UniProt P17948); assay: ProQinase radiometric kinase panel; conditions: mean of 2 exp.
WNK2 = WNK2 (Homo sapiens, UniProt Q9Y3S1); assay: ProQinase radiometric kinase panel; conditions: mean of 2 exp.

IC50 (MAO-A; n = 3–5 concentration response curves, read-out: Inhibition of MAO-A IC50): > 10 µM
residual activity at 1 µM, Mean (ABL2): 96 % of control
residual activity at 1 µM, Mean (ALK): 98 % of control
residual activity at 1 µM, Mean (Aurora-A): 89 % of control
residual activity at 1 µM, Mean (BMX): 79 % of control
residual activity at 1 µM, Mean (B-RAF): 105 % of control
residual activity at 1 µM, Mean (CAMK1D): 102 % of control
residual activity at 1 µM, Mean (CAMK2D): 87 % of control
residual activity at 1 µM, Mean (CDK4/CycD1): 100 % of control
residual activity at 1 µM, Mean (CK1-delta): 71 % of control
residual activity at 1 µM, Mean (CSK): 94 % of control
residual activity at 1 µM, Mean (DDR2): 97 % of control
residual activity at 1 µM, Mean (EPHB2): 99 % of control
residual activity at 1 µM, Mean (GRK2): 92 % of control
residual activity at 1 µM, Mean (GRK5): 95 % of control
residual activity at 1 µM, Mean (HIPK1): 91 % of control
residual activity at 1 µM, Mean (HIPK2): 87 % of control
residual activity at 1 µM, Mean (LIMK1): 57 % of control
residual activity at 1 µM, Mean (MAP4K2): 93 % of control
residual activity at 1 µM, Mean (MET): 100 % of control
residual activity at 1 µM, Mean (MST1): 91 % of control
residual activity at 1 µM, Mean (MUSK): 101 % of control
residual activity at 1 µM, Mean (NEK3): 91 % of control
residual activity at 1 µM, Mean (PKC-gamma): 108 % of control
residual activity at 1 µM, Mean (PKC-theta): 113 % of control
residual activity at 1 µM, Mean (PKC-zeta): 97 % of control
residual activity at 1 µM, Mean (ROS): 94 % of control
residual activity at 1 µM, Mean (S6K-beta): 102 % of control
residual activity at 1 µM, Mean (SGK3): 108 % of control
residual activity at 1 µM, Mean (SLK): 99 % of control
residual activity at 1 µM, Mean (VEGF-R1): 89 % of control
residual activity at 1 µM, Mean (WNK2): 98 % of control
SMILES: COc1ccc2c3ccnc(Cl)c3n(CC#N)c2c1 [AnnH75]
effect on MAO-A (MAO-A): complete elimination of MAO-A inhibition; also recorded: no residual effect on MAO-A
